Data from patent publication US20090022803A1, “Oral Formulations For Delivery of Catecholic Butanes Including Ndga Compounds” (priority 2005, published 2009).
Read-outs that look alike come from different tables or passages of the source.

Type: physicochemical
Details: for Dissolution After Heating: 90° C.
Description: A 10 mL solution of M4N at a concentration of about 10 mg/mL in 40% BP-β-CD was made as follows. About 10 mL of the 40% HP-β-CD solution were added to a glass beaker containing a stir bar. The beaker was placed on a magnetic plate and the stir bar was set to stir at medium speed. About […] of M4N were slowly added to the 40% HP-β-CD in the center of the beaker with the aid of a spatula. The M4N/40% HP-β-CD mixture was stirred for 2 hr or until all M4N was uniformly suspended without any clumps being present. The M4N/40% HP-β-CD mixture was optionally heated at 80° C. for about 30 min. (or longer if a larger volume of solution was desired, for example, 1 hr at 80° C. for 100 mL of the M4N/HP-β-CD mixture), or longer as needed to ensure complete dissolution of M4N. […] The final M4N/40% HP-β-CD solution was stored at room temperature and was kept protected from light. This process may be scaled up or down to obtain the requisite volume or concentration of M4N. Formulations containing M4N in other cyclodextrin solutions may be similarly made, such as, for example, by substituting HP-β-CD in the process described above with other cyclodextrins. […]
A 10 mL solution of M4N at a concentration of about 10 mg/mL in 50% HP-β-CD/0.5% HPMC was made as follows. About 10 mL of the 50% HP-β-CD/0.5% HPMC solution were added to a glass beaker containing a stir bar. The beaker was placed on a magnetic plate and the stir bar was set to stir at medium speed. About 100 mg of M4N were slowly added to the 50% HP-β-CD/0.5% HPMC in the center of the beaker with the aid of a spatula. The M4N/50% HP-β-CD/0.5% HPMC mixture was stirred for 24 hr or until all M4N was uniformly suspended without any clumps being present. The M4N/50% HP-β-CD/0.5% HPMC mixture was heated at about 90° C. for about 30 min. (or longer if a larger volume of solution was desired, for example, 1 hr at 90° C. for 500 mL of the M4N/50% HP-β-CD/0.5% HPMC mixture), or longer as needed to ensure complete dissolution of M4N. […] The final M4N/50% HP-β-CD/0.5% HPMC solution was stored at room temperature and was kept protected from light.
A 10 mL solution of M4N at a concentration of about 20 mg/mL in 5% EC (w/v) (the “EC formulation”) was made as follows. About 10 mL of 5% EC formulation, made as described above, were added to a glass beaker containing a stir bar. The beaker was placed on a magnetic plate and the stir bar was set to stir at medium speed, and covered with a round Teflon® cover. About 200 mg of M4N were slowly added to the 5% EC formulation in the center of the beaker with the aid of a spatula to prevent M4N from sticking to the beaker wall. The M4N/EC mixture was stirred for 2 hr or until all M4N had dissolved or was uniformly suspended without any clumps being present. The M4N/EC mixture was heated at about 60° C. for about 30 min. (or longer if a larger volume of solution was desired, for example, 1 hr at 60° C. for 500 mL of the M4N/EC mixture), or longer as needed to ensure complete dissolution of M4N. […] The final M4N/EC solution was stored at room temperature and was kept protected from light.
A 10 mL solution of M4N at a concentration of about 50 mg/mL in sesame oil was made as follows. About 10 mL of sesame oil were added to a glass beaker containing a stir bar. The beaker was placed on a magnetic plate and the stir bar was set to stir at medium speed. About 500 mg of M4N were slowly added to the sesame oil in the center of the beaker with the aid of a spatula to prevent M4N from sticking to the beaker wall. The M4N/sesame oil mixture was stirred for about 2 hr or until all M4N had dissolved or was uniformly suspended without any clump being present. The M4N/sesame oil mixture was heated at about 60° C. for about 30 min. (or longer if a larger volume of solution was desired, for example, 1 hr at 60° C. for 500 mL of the M4N/sesame oil mixture), or longer as need to ensure complete dissolution of M4N. […]

[1] = M4N 1 mg/mL in 40% HP-β-CD, 1% PVP (w/v)
[2] = M4N 1 mg/mL in 50% HP-β-CD, 0.5% HPMC
[3] = M4N 1 mg/mL in 50% HP-β-CD, 1.25% PVP (w/v)
[4] = M4N 3.13 mg/mL in 5% HP-β-CD, 12.5% PEG 300 (v/v)
[5] = M4N 4.17 mg/mL in 6.7% HP-β-CD, 16.7% PEG 300 (v/v)
[6] = M4N 6.25 mg/mL in 10% HP-β-CD, 25% PEG 300 (v/v)
Wherever Dissolution After Cool Down is given: key: N represents 'No'; Y represents 'Yes.'.

Compound: COc1ccc(C[C@@H](C)[C@@H](C)Cc2ccc(OC)c(OC)c2)cc1OC [Formulation M4N, meso-1,4-bis(3,4-dimethoxyphenyl)-2,3-dimethylbutane]
- Dissolution After Rotation (M4N 1 mg/mL in 1.50% β-CD): N
- Dissolution After Heating at X° C. (M4N 1 mg/mL in 1.50% β-CD, 90°): N at 90°
- Dissolution After Rotation (M4N 1 mg/mL in 2% MC (Low viscosity)): N
- Dissolution After Rotation (M4N 1 mg/mL in 2.3% HPMC): N
- Dissolution After Heating (M4N 1 mg/mL in 2.3% HPMC): N at 90 °C
- Dissolution After Rotation (M4N 1 mg/mL in 5% EC in EtOH): Y
- Dissolution After Rotation (M4N 1 mg/mL in 5% γ-CD): N
- Dissolution After Heating at X° C. (M4N 1 mg/mL in 5% γ-CD, 90°): N at 90°
- Dissolution After Rotation (M4N 1 mg/mL in 15% α-CD): N
- Dissolution After Heating at X° C. (M4N 1 mg/mL in 15% α-CD, 90°): N at 90°
- Dissolution After Cool Down (M4N 1 mg/mL in 20% HP-β-CD): Y
- Dissolution After Rotation (M4N 1 mg/mL in 20% HP-β-CD): N
- Dissolution After Rotation (M4N 1 mg/mL in 20% HP-β-CD in saline): N
- Dissolution After Heating at X° C. (M4N 1 mg/mL in 20% HP-β-CD, 90°): Y at 90°
- Dissolution After Cool Down (M4N 1 mg/mL in 30% HP-β-CD): Y
- Dissolution After Rotation (M4N 1 mg/mL in 30% HP-β-CD): N
- Dissolution After Heating at X° C. (M4N 1 mg/mL in 30% HP-β-CD, 90°): Y at 90°
- Dissolution After Cool Down (M4N 1 mg/mL in 40% HP-β-CD): Y
- Dissolution After Rotation (M4N 1 mg/mL in 40% HP-β-CD): N
- Dissolution After Heating at X° C. [1]: N
- Dissolution After Rotation [1]: N
- Dissolution After Rotation (M4N 1 mg/mL in 40% HP-β-CD, 2.5% PG (v/v)): N
- Dissolution After Heating at X° C. (M4N 1 mg/mL in 40% HP-β-CD, 2.5% PG (v/v), 80°): N at 80°
- Dissolution After Heating at X° C. (M4N 1 mg/mL in 40% HP-β-CD, 80°): Y at 80°
- Dissolution After Cool Down (M4N 1 mg/mL in 50% HP-β-CD): Y
- Dissolution After Rotation (M4N 1 mg/mL in 50% HP-β-CD): N
- Dissolution After Rotation (M4N 1 mg/mL in 50% HP-β-CD, 0.5% CMC): Suspension
- Dissolution After Cool-Down [2]: Y
- Dissolution After Rotation [2]: N
- Dissolution After Rotation (M4N 1 mg/mL in 50% HP-β-CD, 0.5% HPMC, other experiment, no heat): Suspension
- Dissolution After Cool Down [3]: Y
- Dissolution After Rotation [3]: N
- Dissolution After Heating at X° C. (M4N 1 mg/mL in 50% HP-β-CD, 1.25% PVP (w/v), 90°): Y at 90°
- Dissolution After Heating at X° C. (M4N 1 mg/mL in 50% HP-β-CD, 90°): Y at 90°
- Dissolution After Cool-Down (M4N 1 mg/mL in Corn Oil): Y
- Dissolution After Cool Down [4]: Y
- Dissolution After Rotation [4]: N
- Dissolution After Heating at X° C. (M4N 3.13 mg/mL in 5% HP-β-CD, 12.5% PEG 300 (v/v), 60°): Y at 60°
- Dissolution After Cool Down [5]: Y
- Dissolution After Rotation [5]: N
- Dissolution After Heating at X° C. (M4N 4.17 mg/mL in 6.7% HP-β-CD, 16.7% PEG 300 (v/v), 60°): Y at 60°
- Dissolution After Cool Down [6]: Y
- Dissolution After Rotation [6]: N
- Dissolution After Heating at X° C. (M4N 6.25 mg/mL in 10% HP-β-CD, 25% PEG 300 (v/v), 60°): Y at 60°
- Dissolution After Rotation (M4N 10 mg/mL in 1% HPMC): suspension
- Dissolution After Rotation (M4N 10 mg/mL in 1.50% β-CD): N
- Dissolution After Heating at X° C. (M4N 10 mg/mL in 1.50% β-CD, 90°): N at 90°
- Dissolution After Rotation (M4N 10 mg/mL in 2.3% HPMC): N
- Dissolution After Heating (M4N 10 mg/mL in 2.3% HPMC): N at 90 °C
- Dissolution After Cool-Down (M4N 10 mg/mL in 5% EC in EtOH): Y
- Dissolution After Rotation (M4N 10 mg/mL in 5% EC in EtOH): N
- Dissolution After Rotation (M4N 10 mg/mL in 15% α-CD): N
- Dissolution After Heating at X° C. (M4N 10 mg/mL in 15% α-CD, 90°): N at 90°
- Dissolution After Rotation (M4N 10 mg/mL in 20% HP-β-CD): N
- Dissolution After Rotation (M4N 10 mg/mL in 20% HP-β-CD in saline): N
- Dissolution After Heating at X° C. (M4N 10 mg/mL in 20% HP-β-CD, 90°): N at 90°
- Dissolution After Cool Down (M4N 10 mg/mL in 30% HP-β-CD): Y
- Dissolution After Rotation (M4N 10 mg/mL in 30% HP-β-CD): N
- Dissolution After Heating at X° C. (M4N 10 mg/mL in 30% HP-β-CD, 90°): Y at 90°
